Experimental data taken from EP2435019B1, “DODECA-2E,4E-DIENE AMIDES AND THEIR USE AS MEDICAMENTS AND COSMETICS” (Dr. August Wolff GmbH & Co. KG Arzneimittel, priority 2009, dated 2010).
Like-named read-outs stand apart in the source and are kept apart here.

Columns and labels:
[1] = Critical micelle concentration (CMC) measurement, dye micellization; type: physicochemical; settings: fluorescein dye micellization in water, pH 6.9, room temperature
[2] = test system: Arachidonoylethanolamide Transport (AEAT); assay: Cellular uptake of [3H]-AEA in U937 cells (assay C); type: cell-based, Human; settings: Homo sapiens, U-937, read-out: EC50 value, AEA re-uptake inhibition
Procedure: 5x10^5 cells were collected and suspended in 500 µL of sterile PBS (Sigma, San Louis, MO, US) using glass silanized tubes. Cells were pre-incubated 10 min at 37°C in presence of test compounds in a concentration range of 10^-8 - 10^-4 M or in presence of the same amount of solvent (control). Then a mixture of 50 nM [^3H]-AEA (60 Ci/mmol) (American Radiolabeled Chemicals, Inc., San Louis, MO, US) and 50 nM of nonradioactive AEA (Tocris Cookson Ltd., Bristol, UK) was added and samples were incubated at 37°C for different times in the range of 1-60 min. The reaction was stopped by rapid filtration over Whatman GF/C filters pre-soaked in 0,25 % BSA. […] The filters-bound radioactivity was measured using a Beckman LS6500 scintillation counter. Results were expressed as % of AEA uptake versus cells treated with solvent and the EC50 and IC50 values were calculated from the sigmoidal curves, which were generated using the GraphPad Prism (GraphPad Software, San Diego, CA, US).

[3H]-AEA uptake = Cellular uptake of [3H]-AEA in human primary monocytes (assay C); type: cell-based; settings: Figure 1(a), 1 µM
Procedure: (§1) • Figure 1: AEA re-uptake inhibition of 2E,4E-dieneamides 1 and 9 into human primary monocytes and U937 cells. […] Data are mean values ± SEM of 3 independent experiments in a sigmoidal dose-response curve. • Figure 2: Concentration-dependent effects of 4 and 5 on FAAH activity. […] The maximal inhibition (32%) of 5 was measured at 1 µM. Data are mean values ± SEM of 3 independent experiments. • Figure 3: Effects of low nM concentrations of N-alkylamide 7 on FAAH activity alone and in combination with the FAAH inhibitor URB597. […] Data are mean values ± SEM of 3 independent experiments. • Figure 4: 1 and 9 inhibit LPS-induced TNF-alpha release into culture medium (measured by ELISA). Human macrophages (10^6 cells) were stimulated with LPS (500 ng/ml) and treated with UCM707 and/or compounds 1 and 9 at 5 µM for 18 h. N = 3 ± SEM. • Figure 5: UCM707 (positive control) and compounds 1 and 9 diminish NO2^- production. Human macrophages (10^6 cells) were stimulated with LPS (500 ng/ml) and treated with UCM707 and/or compounds 1 and 9 at 5 µM for 18 h. Culture supernatants were assayed for nitrite levels, using the Griess reagent as a reflection of NO production. […]
Human lymphoma U937 cells were grown in RPMI 1640 medium (Invitrogen, Basel, Switzerland) supplemented with 10% fetal bovine serum, […] fungizone (amphotericin B), 100 units/ml penicillin, 100 µg/ml streptomycin, and 2 mM L-glutamine (all from Invitrogen) and selected for the cellular AEA uptake assay. […] The filters-bound radioactivity was measured using a Beckman LS6500 scintillation counter. Results were expressed as % of AEA uptake versus cells treated with solvent and the EC50 and IC50 values were calculated from the sigmoidal curves, which were generated using the GraphPad Prism (GraphPad Software, San Diego, CA, US).

TNF-alpha release = assay: LPS-induced TNF-alpha release from human macrophages (ELISA); type: cell-based; settings: Figure 4; LPS 500 ng/ml; 5 µM for 18 h
Procedure: as §1

[3] = test system: Arachidonoylethanolamide Transport (AEAT); assay: Cellular uptake of [3H]-AEA in U937 cells (assay C); type: cell-based; settings: Homo sapiens, U-937; [3H]-AEA uptake, assay C (Tables 2 and 3)

| SMILES | CMC [1] [µM] | EC50 [2] [µM] | [3H]-AEA uptake inhibition ([3H]-AEA uptake) | LPS-induced TNF-alpha release into culture medium (TNF-alpha release) | EC50 [3] [µM] |
| --- | --- | --- | --- | --- | --- |
| CCCCCCC/C=C/C=C/C(=O)NCCO [Example 1, (2E,4E)-N-(2-hydroxyethyl)dodeca-2,4-diene amide] | >10 | 1.23 ± 0.305 | potently inhibited | inhibit | 1.22 ± 0.24 |
| CCCCCCC/C=C/C=C/C(=O)NCCc1cccc(OC)c1 [Example 9, (2E,4E)-N-(3-methoxyphenethyl)dodeca-2,4-diene amide] | >5 | 0.869 ± 0.172 | potently inhibited | inhibit | 0.87 ± 0.12 |
